Test results: US9980943B2, “Methods of treating muscular dystrophy” (BOARD OF REGENTS OF THE NEVADA SYSTEM OF HIGHER EDUCATION, …, priority 2013, dated 2018)

Key:
Assay type in all cases: cell-based, mouse
[1] = test system: α7 integrin (LacZ reporter in α7βgal+/− myoblasts); assay: Myoblast α7+/LacZ integrin FDG assay (Burkin assay in myoblasts, 96-well); conditions: α7+/LacZ myoblasts, 96-well
[2] = test system: α7 integrin (LacZ reporter in α7+/LacZ myotubes); assay: Myotube α7 integrin FDG assay (Burkin assay in myotubes, 96-well); conditions: myotubes
[3] = test system: β-galactosidase in CMV-LacZ C2C12 myotubes; assay: CMV-LacZ secondary screen in C2C12 myotubes (β-Gal stabilizing assay); conditions: for CMV-LACZ in Myotubes (β-galactosidase activity relative to DMSO): CMV-LacZ C2C12 myotubes, 96-well format
Method in brief: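 β-Gal level was the read-out, measured in a clonal C2C12 line expressing LacZ from a CMV promoter. Dose-response curves used six concentrations, 0.5 μM up to 40 μM, with duplicate points.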

[4] = 5 uM, C2C12 CMV-LacZ myotubes, fold relative to DMSO
[5] = 10 uM, C2C12 CMV-LacZ myotubes, fold relative to DMSO
[6] = 20 uM, C2C12 CMV-LacZ myotubes, fold relative to DMSO
[7] = 40 uM, C2C12 CMV-LacZ myotubes, fold relative to DMSO

Row | Structure (SMILES) | Burkin Assay in Myoblasts, value relative to DMSO ([1]; 0.5 uM) | Burkin Assay in Myoblasts, value relative to DMSO ([1]; 1 uM) | Burkin Assay in Myoblasts, value relative to DMSO ([1]; 5 uM) | Burkin Assay in Myoblasts, value relative to DMSO ([1]; 10 uM) | Burkin Assay in Myoblasts, value relative to DMSO ([1]; 20 uM) | Burkin Assay in Myoblasts, value relative to DMSO ([1]; 40 uM) | Burkin Assay in Myotubes (signal relative to DMSO) ([2]; 0.5 uM) | Burkin Assay in Myotubes (signal relative to DMSO) ([2]; 1 uM) | Burkin Assay in Myotubes (signal relative to DMSO) ([2]; 5 uM) | Burkin Assay in Myotubes (signal relative to DMSO) ([2]; 10 uM) | Burkin Assay in Myotubes (signal relative to DMSO) ([2]; 20 uM) | Burkin Assay in Myotubes (signal relative to DMSO) ([2]; 40 uM) | CMV-LACZ in Myotubes, signal relative to DMSO [3, 4] | CMV-LACZ in Myotubes, signal relative to DMSO [3, 5] | CMV-LACZ in Myotubes, signal relative to DMSO [3, 6] | CMV-LACZ in Myotubes, signal relative to DMSO [3, 7] | other results
1 | COc1nccc(NCc2ccccc2)c1C#N [MLS001077207-01] |  |  |  |  |  |  |  |  |  |  |  |  |  |  |  |  | fold induction at 0.5 µM ([1]; Mus musculus, Myoblast, 48 h, 0.5 uM, read-out: Burkin Assay in Myoblasts, signal relative to DMSO): 0.97; fold induction at 1 µM ([1]; Mus musculus, Myoblast, 48 h, 1 uM, read-out: Burkin Assay in Myoblasts, signal relative to DMSO): 1.01; fold induction at 5 µM ([1]; Mus musculus, Myoblast, 48 h, 5 uM, read-out: Burkin Assay in Myoblasts, signal relative to DMSO): 1.05; fold induction at 10 µM ([1]; Mus musculus, Myoblast, 48 h, 10 uM, read-out: Burkin Assay in Myoblasts, signal relative to DMSO): 1.06; fold induction at 20 µM ([1]; Mus musculus, Myoblast, 48 h, 20 uM, read-out: Burkin Assay in Myoblasts, signal relative to DMSO): 1.01; fold induction at 40 µM ([1]; Mus musculus, Myoblast, 48 h, 40 uM, read-out: Burkin Assay in Myoblasts, signal relative to DMSO): 1.15; fold induction at 0.5 µM ([2]; Mus musculus, Myotube, 0.5 uM, read-out: Burkin Assay in Myotubes, α7 integrin LacZ reporter signal relative to DMSO): 0.985; fold induction at 1 µM ([2]; Mus musculus, Myotube, 1 uM, read-out: Burkin Assay in Myotubes, α7 integrin LacZ reporter signal relative to DMSO): 1.06; fold induction at 5 µM ([2]; Mus musculus, Myotube, 5 uM, read-out: Burkin Assay in Myotubes, α7 integrin LacZ reporter signal relative to DMSO): 1.42; fold induction at 10 µM ([2]; Mus musculus, Myotube, 10 uM, read-out: Burkin Assay in Myotubes, α7 integrin LacZ reporter signal relative to DMSO): 1.15; fold induction at 20 µM ([2]; Mus musculus, Myotube, 20 uM, read-out: Burkin Assay in Myotubes, α7 integrin LacZ reporter signal relative to DMSO): 1.01; fold induction at 40 µM ([2]; Mus musculus, Myotube, 40 uM, read-out: Burkin Assay in Myotubes, α7 integrin LacZ reporter signal relative to DMSO): 1.21; fold induction at 5 µM ([3]; Mus musculus, C2C12, read-out: CMV-LACZ in Myotubes, signal relative to DMSO, 5 uM, C2C12 CMV-LacZ myotubes, fold relative to DMSO): 0.952; fold induction at 10 µM ([3]; Mus musculus, C2C12, read-out: CMV-LACZ in Myotubes, signal relative to DMSO, 10 uM, C2C12 CMV-LacZ myotubes, fold relative to DMSO): 1.04; fold induction at 20 µM ([3]; Mus musculus, C2C12, read-out: CMV-LACZ in Myotubes, signal relative to DMSO, 20 uM, C2C12 CMV-LacZ myotubes, fold relative to DMSO): 0.866; fold induction at 40 µM ([3]; Mus musculus, C2C12, read-out: CMV-LACZ in Myotubes, signal relative to DMSO, 40 uM, C2C12 CMV-LacZ myotubes, fold relative to DMSO): 0.782
2 | CSc1ncccc1C(=O)OCC(=O)c1cc(C)n(C)c1C [MLS002245351-01] | 1.082 | 1.037 | 1.034 | 0.9704 | 0.9001 | 0.8657 | 1.047 | 0.9463 | 1.107 | 1.042 | 1.061 | 1.031 |  |  |  |  | CMV-LACZ in Myotubes (β-galactosidase activity relative to DMSO) ([3]; 5 uM): 0.8306; CMV-LACZ in Myotubes (β-galactosidase activity relative to DMSO) ([3]; 10 uM): 1.001; CMV-LACZ in Myotubes (β-galactosidase activity relative to DMSO) ([3]; 20 uM): 1.009; CMV-LACZ in Myotubes (β-galactosidase activity relative to DMSO) ([3]; 40 uM): 0.9307
3 | Cc1ccc(NC(=O)COc2ccccc2CNC(C)(C)CC(C)(C)C)cc1 [MLS000538580-01] |  |  |  |  |  |  |  |  |  |  |  |  | 0.6613 | 0.5729 | 0.3838 | 0.2705 | Burkin Assay in Myoblasts, signal relative to DMSO ([1]; 0.5 uM): 0.9645; Burkin Assay in Myoblasts, signal relative to DMSO ([1]; 1 uM): 0.9097; Burkin Assay in Myoblasts, signal relative to DMSO ([1]; 5 uM): 0.8691; Burkin Assay in Myoblasts, signal relative to DMSO ([1]; 10 uM): 0.5306; Burkin Assay in Myoblasts, signal relative to DMSO ([1]; 20 uM): 0.03863; Burkin Assay in Myoblasts, signal relative to DMSO ([1]; 40 uM): 0.02896; Burkin Assay in Myotubes, α7 integrin LacZ reporter signal relative to DMSO ([2]; 0.5 uM): 1.087; Burkin Assay in Myotubes, α7 integrin LacZ reporter signal relative to DMSO ([2]; 1 uM): 1.025; Burkin Assay in Myotubes, α7 integrin LacZ reporter signal relative to DMSO ([2]; 5 uM): 0.8641; Burkin Assay in Myotubes, α7 integrin LacZ reporter signal relative to DMSO ([2]; 10 uM): 0.4774; Burkin Assay in Myotubes, α7 integrin LacZ reporter signal relative to DMSO ([2]; 20 uM): 0.928; Burkin Assay in Myotubes, α7 integrin LacZ reporter signal relative to DMSO ([2]; 40 uM): 0.1825
4 | COc1cc(Cl)cc(CN2CCC(CCC(=O)NC3CC3)CC2)c1OC [MLS001162872-01] | 0.9547 | 0.949 | 0.9025 | 0.904 | 0.783 | 0.7773 | 1.13 | 1.051 | 0.8369 | 1.031 | 1.034 | 0.8876 | 0.7855 | 1.084 | 1.061 | 0.9794 | 
5 | O=C(NCc1ccccc1)C(c1ccc(O)cc1)N(C(=O)Cn1nnc(-c2cccs2)n1)c1ccc2c(c1)OCCO2 (stereo not shown) [MLS000123454-01] | 0.8934 | 0.8234 | 0.7862 | 0.8621 | 1.519 | 1.013 | 1.067 | 0.8963 | 1.047 | 1.083 | 0.6841 | 0.8852 |  |  |  |  | CMV-LACZ in Myotubes (β-galactosidase activity relative to DMSO) ([3]; 5 uM): 0.9353; CMV-LACZ in Myotubes (β-galactosidase activity relative to DMSO) ([3]; 10 uM): 0.9323; CMV-LACZ in Myotubes (β-galactosidase activity relative to DMSO) ([3]; 20 uM): 0.8796; CMV-LACZ in Myotubes (β-galactosidase activity relative to DMSO) ([3]; 40 uM): 1.055
6 | COc1ccccc1CNS(=O)(=O)c1ccc(Cl)s1 [MLS001175449-01] | 1.0562 | 1.036 | 1.045 | 0.9949 | 1.066 | 0.7564 | 1.1188 | 1.016 | 1.156 | 0.9366 | 1.151 | 0.8041 | 0.8534 | 0.9034 | 0.889 | 0.8671 | 
7 | O=C(COc1cc2oc(=O)c3c(c2cc1Cl)CCCC3)NCC1CCC(C(=O)O)CC1 (stereo not shown) [MLS001157804-01] | 0.879 | 0.9385 | 0.998 | 1.117 | 1.052 | 1.104 | 1.045 | 1.013 | 1.031 | 1.083 | 1.069 | 1.188 | 0.703 | 0.9842 | 1.05 | 1.07 | 
